We go through one molecule from patent US20130296417A1, “Theaflavin Compositions, Production, and Method to Control Physiological Disorders in Mammals” (JANGSU DEHE BIO-TECH CO., LTD., priority 2010, published 2013).

For this data set, the system named is Madin-Darby canine kidney (MDCK) cells. The data set can be described thus: Cytotoxicity (CC50) in MDCK cells (Example II).

The structures appear in SMILES notation.

As to `O=C(O[C@@H]1Cc2c(O)cc(O)cc2O[C@@H]1c1cc(O)c(O)c(O)c1)c1cc(O)c(O)c(O)c1` [EGCG, (−)-epigallocatechin-3-gallate], the “CC50” value was greater than 100 µg/mL.

By CC50 is commonly meant the concentration giving 50% cytotoxicity. Read a high CC50 as better tolerance by the cells.
